Data: US9198879B2, “Pharmacologically optimized multimodal drug delivery system for nordihydroguiaretic acid (NDGA)” (Napo Pharmaceuticals, Inc., priority 2011, dated 2015)
Entries after “also recorded” stand apart in the source; their conditions may differ.

What was measured:
[1] = tested on: rodent models; experiment: Oral NDGA in a variety of rodent models (model not given); format: in vivo
Protocol: In these studies, a variety of rodent models were used to evaluate the glucose-lowering properties and its effects on lipids, such as lowering of triglycerides. NDGA was administered orally to animals over a wide range of doses (10 to 350) mg/kg.
NDGA was effective at lowering glucose when formulated in either aqueous or lipophilic vehicles to varying degrees of efficacy.

[2] = tested on: Ob/ob mice; experiment: Glucose lowering in ob/ob mice; format: in vivo, mouse; conditions: ob/ob mice with diabetes, given orally
From the text: (§1) In this study, the following animal models where used: • Db/db mice: homozygous mice are a model of obesity, diabetes and dyslipedemia where their leptin receptor activity is deficient. • Ob/ob mice: obese mice with diabetes. • Db/lean mice: heterozygous mice that are not diabetic. • Fat/STZ rats: non-genetically diabetic overweight rats that are fed diets enriched in fat and made hyperglycemic by chemically removing their pancreatic function to reduce insulin production by treating them with streptozotocin (STZ). • Fructose/STZ rats: non-diabetic rats that are fed diets enriched in fructose and made hyperglycemic by treating them with STZ. • ZDF rats: obese and hyperglycemic rats with other metabolic disorders.
(§2) Baseline glucose and triglyceride concentrations, where appropriate, were measured for both diabetic and normal animals.

[3] = tested on: liver triglyceride secretion; experiment: Liver triglyceride secretion; format: in vivo; conditions: NDGA treatment
From the text: (§3) It is likely that the triglyceride-lowering effect of NDGA may also be explained, at least in part, by the suppression of free fatty acid (FFA) release. Free fatty acids in the circulation can enter the liver and can be re-assembled into triglycerides by the process of re-esterification. […] It should be noted that other mechanisms for reducing triglycerides, such as increased triglyceride clearance, are not ruled out by these findings.
The triglyceride-lowering effect of NDGA may be explained by the suppression of free fatty acid (FFA) release. Free fatty acids in the circulation can enter the liver and be re-assembled into triglycerides in a process known as re-esterification.

[4] = tested on: fructose-fed and fat-fed/STZ rat models; experiment: NDGA versus metformin at equimolar doses in fructose-fed and fat-fed/STZ rat models; format: in vivo
From the text: NDGA has been studied by administering it orally to animals to determine its effectiveness for lowering glucose, free fatty acid (FFA) and triglyceride levels. […] See Example 2 below. […] There was no significant baseline difference between the NDGA and metformin groups.
In one such study, the effects of NDGA and metformin as a control drug for treatment of diabetes were studied in a non-diabetic model of hypertriglyceridemia (fructose-fed) and a non-genetic, (i.e., streptozotocin (STZ) treated) model of diabetes. […] See FIGS. 2 (glucose) and 3 (triglycerides).

[5] = tested on: fructose-fed hypertriglyceridemic rats; experiment: Fructose-fed hypertriglyceridemic rat model; format: in vivo
From the text: as §3
These reductions in free fatty acid concentration could result from either decreased production (by reduced lipolysis) or increased removal of free fatty acids from the circulation by liver, fat or muscle.

[6] = tested on: high fat diet-fed/STZ rat model; experiment: Liver and muscle glycogen content after NDGA treatment; format: in vivo
Protocol: In the high fat diet-fed/STZ rat model, liver and muscle glycogen content was measured after treatment with NDGA versus vehicle. Treatment with NDGA had no effect on muscle glycogen levels when compared to control.

[7] = tested on: Db/db mice; experiment: Glucose lowering in db/db mice; format: in vivo, mouse; conditions: db/db mice with diabetes, given orally
From the text: as §1, §2

[8] = cited from earlier work
[9] = tested on: cecum; conditions: in vivo; cited from earlier work
[10] = equimolar doses of NDGA or metformin

CC(Cc1ccc(O)c(O)c1)C(C)Cc1ccc(O)c(O)c1 (stereo not shown) [NDGA, nordihydroguaiaretic acid]
triglyceride lowering ([1]; CMC, PEG or Gelucire vehicles, doses as low as 10 mg/kg twice per day): lowered triglyceride concentrations | triglyceride lowering ([1]; administered orally just once per day): lowered triglycerides | insulin concentrations ([1]; highest dose studied, 350 mg/kg twice daily): did not result in increased insulin concentrations | glucose lowering ([1]; once daily administration): generally ineffective at lowering glucose concentrations | glucose lowering [2]: significantly lowers glucose | liver triglyceride secretion [3]: inhibit liver triglyceride secretion | change in insulin concentrations [4, 10]: without changing insulin concentration; also recorded: without any change in insulin concentrations | glucose lowering in comparison to the vehicle control [4, 10]: significantly lowered glucose | triglyceride lowering in comparison to the vehicle control [4, 10]: significantly lowered triglycerides | lowering of triglyceride concentrations in comparison to vehicle ([4]; equimolar dosing with metformin): 80% | free fatty acid (FFA) concentrations ([5]; fructose-fed hypertriglyceridemic rats): decreases free fatty acid (FFA) concentrations | glucose lowering ([5]; fructose-fed rats, 80 mg/kg twice daily): did not lower glucose levels | triglyceride lowering ([5]; hypertriglyceridemic rat model, low doses of 10 and 20 mg/kg): triglyceride-lowering effects | effect on muscle glycogen levels ([6]; compared to control): no effect | reduction of liver glycogen concentrations ([6]; versus vehicle): approximately 75% | glucose lowering [7]: significantly lowers glucose | solubility in aqueous media / water ([8]; aqueous media): poorly water-soluble; also recorded: insoluble | solubility in organic solvents ([8]; organic solvents such as methanol and ethanol): soluble | lesions in the cecum [9]: known to cause lesions in the cecum
